Literature values as cited in patent US10220158B2 (kaleo, Inc., priority 2014, dated 2019).

Settings: jet injector vs conventional syringe

## Cc1ncc2n1-c1ccc(Cl)cc1C(c1ccccc1F)=NC2 [midazolam]
  peak midazolam plasma concentrations produced faster: over 30%
